# US11618742B2, “Radical polymerization initiator, composition containing same, cured product of composition, production method for cured product, and compound” (ADEKA CORPORATION, priority 2018, dated 2023)
# Columns and labels:
# Solubility in water = assay type: physicochemical; conditions: 25° C., RH 65%, 100 g deionized water, added 0.1 g at a time
# Procedure: Specifically, the measurement is performed by adding the compound in an amount of 0.1 g at a time.
# [1] = Maximum absorption wavelength (absorption spectrum, spectrophotometer); assay type: physicochemical
# From the text: (2) load the measurement aqueous solution to a quartz cell (optical path length=10 mm, thickness 1.25 mm), and measure the absorption spectrum using a spectrophotometer (e.g., visible-ultraviolet absorption spectrometer V-670 manufactured by JASCO Corporation). As the absorption spectrum of the measurement aqueous solution, a corrected absorption spectrum obtained by measuring the absorption spectrum of water alone in advance and deducting this absorption spectrum of water from the absorption spectrum of the measurement aqueous solution is used. […] (2) The thus obtained measurement aqueous solutions were each loaded to a quartz cell (optical path length—10 mm, thickness 1.25 mm), and an absorption spectrum was measured using a spectrophotometer (e.g., visible-ultraviolet absorption spectrometer V-670 manufactured by JASCO Corporation). […] Further, as the absorption spectrum, a corrected absorption spectrum obtained by measuring the absorption spectrum of the solvent itself in advance and deducting this absorption spectrum of the solvent from the absorption spectrum of the measurement solution was used.
# [2] = 0.1%-by-mass aqueous solution, range of 300 nm to 600 nm
# [3] = measurement solution in acetonitrile (low solubility in water)
"Maximum absorption wavelength [1, 2] [nm]",Compound,Solubility in 100 parts by mass of water (Solubility in water) [parts by mass],"Maximum absorption wavelength [1, 3] [nm]"
,O=C(O)c1cccc2c(=O)c3ccccc3sc12 [Compound 1],0.9,
,O=C(O)c1cccc2c(=O)c3ccccc3sc12 [Compound 61],1.2,
270,CC(C)(O)C(=O)c1ccc(OCCO)cc1 [Compound 101],0.8,
,"O=C(c1ccccc1)c1ccccc1 [Compound 103, benzophenone]",,253
,"CC12CCC(C(=O)C1=O)C2(C)C (centres unmarked) [Compound 104, camphor quinone]",<0.1,460
371,Cc1cc(C)c(C(=O)P(=O)(O)c2ccccc2)c(C)c1 [Compound 105],≥50,
,"O=C(O)c1cccc2c(=O)c3ccccc3sc12 [Compound 106, thioxanthone carboxylic acid]",<0.1,391
